{"source": "patent US11261189B2", "about": "“Substituted 2,4 diamino-quinoline as new medicament for fibrosis, autophagy and cathepsins B (CTSB), L (CTSL) and D (CTSD) related diseases” (Genoscience Pharma, priority 2018, dated 2022)", "key": {"[1]": {"test_system": "cathepsins B and L (CTSB/L)", "assay": "Overall cathepsins B and L (CTSB/L) peptidase activity in lysates of treated HepG2 cells (Z-FR-AMC substrate)", "format": "cell-based", "conditions": "HepG2; 7.5 μM, 6 hours and 24 hours", "procedure": "(§1) Lysosomal functions was investigated in a hepatocellular carcinoma (HCC) cell line HepG2 after 6 hours and 24 hours of treatment with compound 2-3 (the hydrochloride salt form of compound 2-2) using functional assays of some lysosomal enzymes activity: two cysteine proteinases: cathepsin B (CTSB) and cathepsin L (CTSL), and one aspartic proteinase: cathepsin D (CTSD). Two sets of three concentrations of compound 2-3 (1 μM, 2 μM, and 4 μM for 6 hours, and 0.5 μM, 1 μM and 2 μM for 24 hours) were tested at least in triplicate and four independent experiments were performed. Salinomycin (7.5 μM for 6 hours and 24 hours) was used as a positive control.\n(§2) The HepG2 cell line was maintained in DMEM (Dulbecco's Modified Eagle Media) high glucose (Cat #L0103-500, Dutscher) containing 1% penicillin-streptomycin (Cat #P06-07100, Dutscher) and 10% FBS (Fetal Bovine Serum) (Cat #11543407, Life Technologies). Cells were cultured at 37° C. with 5% CO2.\n(§3) The day before the experiment, 6-well plates (Cat #353046, Dutscher) with 250,000 cells in 2.7 mL of medium per well were prepared.\n(§4) Compound 2-3 was dissolved with filtrated H2O mQ to make a 10 mM stock solution and serial working solutions (10× solutions) were prepared with the diluent (=culture medium with 0.4% H2O mQ) at 5 μM, 10 μM, 20 μM and 40 μM: the “dilution 1” is made from the 10 mM stock solution in the culture medium and the following serial dilutions were made in the diluent to maintain a constant percentage of H2O.\n(§5) Salinomycin [CAS 53003-10-4] was used as positive control and was dissolved with methanol to make a 10 mM stock solution and a 10× solution at 75 μM was prepared with the culture medium.\n(§6) 300 μL of compound 2-3 10× solutions (solutions at 10 μM, 20 μM and 40 μM for 6 hours of treatment and solutions at 5 μM, 10 μM and 20 μM for 24 hours of treatment) or 300 μL of diluent (=non-treated (NT) condition) or 300 μL of Salinomycin 10× solution were dispensed in the appropriate wells (4 wells/condition). After cells treatment, 6-well plates were returned to incubator for 6 hours or 24 hours.\n(§7) After 6 hours or 24 hours of cells treatment, the medium was removed from each well. The cells were carefully rinsed with PBS (phosphate-buffered saline, Cat #L0615-500, Dutscher) and detached with 500 μL per well of a trypsin solution. After 5 min of trypsin (Cat #L0930-100, Dutscher) incubation at 37° C., 800 μL of medium was added per well and transferred to a 1.5 mL tube. Then, 800 μL of PBS was used to rinse each well and the corresponding solution was pooled in each corresponding 1.5 mL tube. […] Total protein concentration was assessed using the Bradford reagent (Cat #B6916-500ML, Sigma-Aldrich) and cellular lysates were stored at −80° C. until catalytic activity measurement. […]"}, "[2]": {"biological_target": "T1, cathepsin B (CTSB) (Homo sapiens, UniProt P07858)", "T1 construct": "endogenous in cells; host or cells: HepG2", "assay": "Cathepsin B (CTSB) catalytic activity in lysates of treated HepG2 cells (Z-RR-AMC substrate)", "format": "cell-based", "conditions": "HepG2; 7.5 μM, 6 hours and 24 hours", "procedure": "as §1, §2, §3, §4, §5, §6, §7"}, "[3]": {"biological_target": "T2, cathepsin D (CTSD) (Homo sapiens, UniProt P07339)", "T2 construct": "cell lysates (1 μg of total proteins) were pre-incubated with citrate buffer pH 4.0; endogenous in cells; host or cells: HepG2", "T2 sequence (P07339 65-412)": "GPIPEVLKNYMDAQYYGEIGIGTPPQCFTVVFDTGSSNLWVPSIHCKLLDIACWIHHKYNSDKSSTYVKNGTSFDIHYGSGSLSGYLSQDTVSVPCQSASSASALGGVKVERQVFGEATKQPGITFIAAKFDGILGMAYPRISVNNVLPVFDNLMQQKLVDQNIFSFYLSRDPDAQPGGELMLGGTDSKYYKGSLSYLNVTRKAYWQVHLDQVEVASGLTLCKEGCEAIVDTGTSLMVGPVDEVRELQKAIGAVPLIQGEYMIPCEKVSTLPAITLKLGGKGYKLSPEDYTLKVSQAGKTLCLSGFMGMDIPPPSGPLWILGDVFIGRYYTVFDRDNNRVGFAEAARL", "assay": "Cathepsin D (CTSD) peptidase activity in lysates of treated HepG2 cells (MOCAc quenched fluorogenic substrate)", "format": "cell-based", "conditions": "HepG2; 7.5 μM, 6 hours and 24 hours", "procedure": "as §1, §2, §3, §4\nSalinomycin [CAS 53003-10-4] was used as positive control and was dissolved with methanol to make a 10 mM stock solution and a 10× solution at 75 μM was prepared with the culture medium. […]\nAfter 6 hours or 24 hours of cells treatment, the medium was removed from each well. […] Total protein concentration was assessed using the Bradford reagent (Cat #B6916-500ML, Sigma-Aldrich) and cellular lysates were stored at −80° C. until catalytic activity measurement. […]"}, "[4]": {"test_system": "diethyl nitrosamine (DEN) cirrhotic rat model of liver fibrosis", "assay": "DEN induced cirrhosis in rats, study 2: Sirius red quantification of liver fibrosis", "format": "in vivo", "conditions": "group 4 (20/15): 20 mg/kg/day p.o. 4 weeks then 15 mg/kg/day 3 weeks; p=0.03", "procedure": "A second in vivo experiment, with the same diethyl nitrosamine (DEN) cirrhotic rat animal model of liver fibrosis, was performed including compound 2-2 (base form of compound 2-3) with discontinued oral dosing schedule and compound 5-3 with daily oral exposure. Compounds 2-2 and 5-3 were administered p.o. by gavage (oral gavage) once daily during 7 weeks.\nRats were treated with DEN for 13 weeks (intra-peritoneal injections (i.p.) of 50 mg/kg/week) and then treated according to the Table 10 dosage schedule during 7 weeks. At the end of the study, all animals were sacrificed using CO2 and rat livers were collected for analysis. The quantification of the liver fibrotic tissue was evaluated by Sirius red staining of rat liver sections.\nGroup 1 contained 6 animals which were daily dosed (q.d.) by oral gavage (per os, p.o.) with the vehicle during 7 weeks.\nGroup 2 contained 8 animals and the corresponding animals were daily dosed (q.d.) by oral gavage (per os, p.o.) with compound 2-2 during 4 weeks at 20 mg/kg/day and then during 3 weeks at 20 mg/kg every 2 days (q.o.d.: quaque altera die, one day treated, on day untreated).\nGroup 3 contained 8 animals and the corresponding animals were daily dosed (q.d.) by oral gavage (per os, p.o.) with compound 2-2 during 3 weeks at 20 mg/kg/day, then 2 weeks of treatment free period, and were then daily dosed (q.d.) by oral gavage (per os, p.o.) with compound 2-2 during 2 weeks at 20 mg/kg/day.\nGroup 4 contained 8 animals and the corresponding animals were daily dosed (q.d.) by oral gavage (per os, p.o.) with compound 5-3 during 4 weeks at 20 mg/kg/day, and were then daily dosed (q.d.) by oral gavage (per os, p.o.) with compound 5-3 during 3 weeks at 15 mg/kg/day.\nCompound 2-2 and 5-3 were formulated in water for injection acidified with hydrochloric acid to pH 4."}, "[5]": {"test_system": "diethyl nitrosamine (DEN) cirrhotic rat model of liver fibrosis", "assay": "DEN induced cirrhosis in rats, study 1: Sirius red quantification of liver fibrosis", "format": "in vivo", "conditions": "group 2: Sorafenib 10 mg/kg/day p.o. q.d., 6 weeks after 14 weeks DEN", "from_the_text": "This animal model allows developing an extensive liver fibrosis, leading to a compensated liver cirrhosis with a multifocal hepatocarcinoma (HCC) after 14 weeks of induction (Schiffer, E. et al. Hepatology 2005 (41), 307-314). The DEN cirrhotic rat animal model was used here as a specific animal model of liver fibrosis.\nForty two Fisher 344 male rat (obtained from Charles River Laboratories France, including spare animals), weighting approximately 280 g at the start of the study, were randomized in 5 groups of 8 (groups 1, 2, 3 and 5) or 6 (group 4) animals and housed with 3 animals per cage, given free access to food and water and allowed to acclimate for at least 5 days prior to test initiation.\nThe DEN cirrhotic rat model was obtained after 14 weekly intraperitoneal injections of DEN (intra-peritoneal injections (i.p.) of DEN at 50 mg/kg/week). The animals were then treated according to Table 9 during 6 weeks. In this in vivo experiment, the anti-fibrotic activity of compound 2-3 was evaluated in liver fibrosis animal model, alone or in combination with Sorafenib (a multikinase inhibitor of Raf-1, B-Raf, VEGFR-2, VEGFR3, PDGFRβ, Flt3 and c-Kit). After 6 weeks of treatment, all animals were sacrificed using CO2 and rat livers were collected for analysis. The quantification of the liver fibrotic tissue was evaluated by Sirius red staining of rat liver sections.\nGroup 1 contained 8 animals which were daily dosed (q.d.) by oral gavage (per os, p.o.) with the vehicle during 6 weeks.\nGroup 2 contained 8 animals which were daily dosed (q.d.) by oral gavage (per os, p.o.) with Sorafenib at 10 mg/kg/day during 6 weeks.\nGroup 3 contained 8 animals which were daily dosed (q.d.) by oral gavage (per os, p.o.) with compound 2-3 at 15 mg/kg/day during 6 weeks.\nGroup 4 contained 6 animals which were daily dosed (q.d.) by oral gavage (per os, p.o.) with compound 2-3 at 15 mg/kg/day in combination with Sorafenib at 10 mg/kg/day during 6 weeks.\nGroup 5 contained 8 animals which were daily dosed (q.d.) by oral gavage (per os, p.o.) with compound 2-3 at 30 mg/kg/day during 6 weeks. […]"}}}
{"smiles": "CC[C@@H](C(=O)[C@@H](C)[C@@H](O)[C@H](C)[C@@H]1O[C@@H]([C@@H](CC)C(=O)O)CC[C@@H]1C)[C@H]1O[C@]2(C=C[C@@H](O)[C@]3(CC[C@@](C)([C@H]4CC[C@](O)(CC)[C@H](C)O4)O3)O2)[C@H](C)C[C@@H]1C", "note": "[Salynomycin, Salinomycin, reference compound]", "values": [{"measurement": "proteolytic activity of cathepsins B/L (positive control)", "setting": "[1]", "result": "significantly decreased"}, {"measurement": "proteolytic activity of cathepsin B (positive control)", "setting": "[2]", "result": "significantly decreased"}, {"measurement": "proteolytic activity of cathepsin D (positive control)", "setting": "[3]", "result": "significantly decreased"}]}
{"smiles": "CC(C)(C)NC1CCN(c2cc(NCc3ccc(F)cc3)nc3ccccc23)CC1", "note": "[5-3, 2-(4-fluorobenzylamino)-4-(4-tert-butylaminopiperidin-1-yl)-quinoline]", "values": [{"measurement": "reduction of the level of collagen fibers deposition (Sirius red) compared to the control group", "setting": "[4]", "result": 24, "unit": "%"}]}
{"smiles": "CNC(=O)c1cc(Oc2ccc(NC(=O)Nc3ccc(Cl)c(C(F)(F)F)c3)cc2)ccn1", "note": "[Sorafenib, reference compound]", "values": [{"measurement": "reduction of the level of collagen fibers deposition (Sirius red) compared to the control group", "setting": "[5]", "result": 13.6, "unit": "%"}]}
